Tested on: M109 cells
Test: Survival of mice with M109 lung tumor implants, folate-MDP therapy
Assay type: in vivo
Details: female Balb/c mice, M109 cells i.p.; folate-MDP 15 nmoles/kg, IL-2 5,000 IU/dose, IFN-α 25,000 U/dose; injections on days 7, 8, 9, 11, 14
Method: Female Balb/c mice were injected on day 0 with 5×10^5 M109 cells, a syngeneic lung cancer cell line that expresses high levels of the folate receptor. In an effort to reduce the time required to obtain long-term survival data, the tumor cells were implanted intraperitoneally close to the liver. Cancer loci were then allowed to attach and grow. The animals were then injected with PBS (control) or were co-injected with folate-muramyl dipeptide (MDP) (15 nmoles/kg), IL-2 (5,000 IU/dose), and IFN-α (25,000 U/dose) on days 7, 8, 9, 11, and 14 after tumor cell implantation. Folate was conjugated to MDP via a gamma carboxyl-linked ethylene diamine bridge. Additional animals were injected with 80 nmoles/kg MDP, 15 nmoles/kg folate-MDP, or 80 nmoles/kg MDP and IL-2 and IFN-α at the concentrations specified above. The efficacy of this immunotherapy was evaluated by monitoring survival as a function of time of folate-MDP treated mice compared to control animals.

## folate-muramyl dipeptide [folate-MDP]
  effect on long-term survival of tumor-bearing mice: negligible effect
